Patent publication US11197908B2, “Peptoids and methods for attenuating inflammatory response” (THE BOARD OF TRUSTEES OF THE UNIVERSITY OF ARKANSAS, priority 2018, dated 2021)
Where a SMILES comes first, the peptide text is derived from it. [ ]: non-standard residue; d: D form. N(1S-Me-propyl)Gly = CC[C@H](C)NCC(=O)O; Nspe = C[C@H](NCC(=O)O)c1ccccc1; Nlys = NCCCCNCC(=O)O

Key:
RAGE [1] = biological target: RAGE (Homo sapiens, UniProt Q15109); assay: RAGE binding to peptoid-coated 96-well plates, Scatchard plot; settings: plates coated with 500 nM peptoid; JPT1a n=3 average, JPT1 n=1
Chain of RAGE (Homo sapiens, UniProt Q15109) (Q15109 23-404): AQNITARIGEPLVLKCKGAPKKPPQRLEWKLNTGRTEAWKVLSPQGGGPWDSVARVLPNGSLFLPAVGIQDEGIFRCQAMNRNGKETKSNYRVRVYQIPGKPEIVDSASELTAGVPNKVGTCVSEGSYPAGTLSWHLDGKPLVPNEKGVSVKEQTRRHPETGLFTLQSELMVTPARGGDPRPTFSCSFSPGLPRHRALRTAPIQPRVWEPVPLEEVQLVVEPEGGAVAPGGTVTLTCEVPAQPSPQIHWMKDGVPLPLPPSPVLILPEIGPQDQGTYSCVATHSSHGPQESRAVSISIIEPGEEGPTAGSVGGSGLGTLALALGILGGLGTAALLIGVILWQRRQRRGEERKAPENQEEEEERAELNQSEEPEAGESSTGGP
Experimental: (§1) As shown in FIGS. 7A-7D, 96-well plates coated with 500 nM JPT1a were treated with concentrations of RAGE (FIG. 7A) or E-cadherin (FIG. 7B) ranging from 1 to 500 nM. Values are reported as the average concentration of bound protein determined from all experiments. Error bars indicate SEM, n=2-5. […] In FIG. 7D, 96-well plates coated with 500 nM JPT1 were treated with concentrations of RAGE ranging from 1 to 350 nM.

RAGE [2] = assay: Aβ1-42 oligomer induced RAGE expression in THP1 macrophages (confocal imaging); format: cell-based, human; settings: 3 days
Experimental: Aβ1-42 oligomers were prepared at 15 μM through the addition of 12 mM phosphate containing […] to DMSO-solubilized AP. After 15-minute incubation, oligomerization was halted and used to immediately prepare treatments of 10 nM Aβ1-42 oligomers alone (positive control) or in the presence of the peptoid at concentrations ranging from 1 μM to 25 μM. Treatments were applied to THP1 macrophages for 3 days prior to cell fixation and staining. Treatment with 10 nM Aβ1-42 oligomers alone served as a positive control, while treatment with an equivalent volume of buffer diluted into media served as the vehicle. Treatment with 15 μM JPT1a ensured that JPT1a alone had no effect. Cells were fixed and stained for RAGE, phalloidin (cytoplasmic marker), and DAPI (nuclear marker). […] All multi-channel images were converted to TIFF file format via ImageJ64 software for quantitative image analysis using a custom subroutine written in MATLAB™ software to obtain the average RAGE expression per volume of cells.
Treatment with an equivalent volume of buffer diluted into media served as the vehicle. Treatment with 25 μM JPT1a in the presence of vehicle assessed the effect of the peptoid alone (black). Images were analyzed via custom MATLAB™ subroutine to determine the average quantity of RAGE present within a given volume of cells. […]

E-cadherin = biological target: T1, E-cadherin (Homo sapiens, UniProt P12830); assay: E-cadherin binding to JPT1a-coated 96-well plates; settings: plates coated with 500 nM JPT1a; E-cadherin 1 to 500 nM
T1 sequence (P12830 155-882): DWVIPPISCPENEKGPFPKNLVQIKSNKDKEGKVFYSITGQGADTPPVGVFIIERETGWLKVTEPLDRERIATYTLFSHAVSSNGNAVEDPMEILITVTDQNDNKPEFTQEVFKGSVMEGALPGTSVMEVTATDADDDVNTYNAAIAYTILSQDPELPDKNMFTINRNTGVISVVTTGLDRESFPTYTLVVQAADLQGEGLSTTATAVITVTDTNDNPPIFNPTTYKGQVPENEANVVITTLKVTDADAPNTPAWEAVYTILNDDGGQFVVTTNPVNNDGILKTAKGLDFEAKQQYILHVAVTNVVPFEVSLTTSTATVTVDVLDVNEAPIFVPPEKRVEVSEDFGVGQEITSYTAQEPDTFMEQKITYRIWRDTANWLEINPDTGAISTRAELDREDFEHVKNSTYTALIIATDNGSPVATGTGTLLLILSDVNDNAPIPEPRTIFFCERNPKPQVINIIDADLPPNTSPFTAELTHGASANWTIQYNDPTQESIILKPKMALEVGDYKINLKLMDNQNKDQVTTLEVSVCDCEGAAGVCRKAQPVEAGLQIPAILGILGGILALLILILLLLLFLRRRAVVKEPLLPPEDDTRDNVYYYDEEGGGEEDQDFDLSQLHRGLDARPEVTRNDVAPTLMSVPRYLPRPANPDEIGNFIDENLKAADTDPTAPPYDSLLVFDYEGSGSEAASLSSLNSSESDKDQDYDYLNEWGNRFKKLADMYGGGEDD
Experimental: as §1

Kd (RAGE [1]): 51.8 ± 7.3 nM
binding to E-cadherin (E-cadherin): absence of binding
Compound: CC[C@H](C)N(CC(=O)N(CC(=O)N(CC(=O)N(CC(=O)N(CC(=O)N(CC(=O)N(CC(N)=O)[C@@H](C)c1ccccc1)[C@@H](C)c1ccccc1)[C@@H](C)CC)[C@@H](C)c1ccccc1)[C@@H](C)c1ccccc1)[C@@H](C)CC)C(=O)CNCCCCN [JPT1a] (H-[Nlys][N(1S-Me-propyl)Gly][N(1S-Me-propyl)Gly][Nspe][Nspe][N(1S-Me-propyl)Gly][Nspe][Nspe]-NH2)
expression of RAGE, JPT1a alone (RAGE [2]; 25 μM JPT1a in the presence of vehicle): does not provoke significant response or upregulation
Aβ1-42 oligomer induced RAGE expression (RAGE [2]; JPT1a 25, 10, 5 or 1 μM with 10 nM Aβ1-42 oligomers, fraction of positive control): dose-dependent reduction
